Experimental data: patent US4370323A, “2-Cyanoaziridinyl-(1)-2-substituted-aziridinyl-(1)-methanes” (Boehringer Mannheim GmbH, priority 1976, dated 1983)

Columns and labels:
[1] = prior art compound, cited from earlier work
[2] = tested on: leukocytes, lymphocytes, erythrocytes, antibody-forming spleen cells; conditions: intravenous; cited from earlier work
leucocyte number = assay: Alteration of the leucocyte number in rats; format: in vivo, female Sprague-Dawley rats; conditions: fourth day, ten rats; for response vs control in vivo at 50 mg/kg / response vs control in vivo at 200 mg/kg: Rattus norvegicus, Leucocyte, po, 96 h, read-out: proportion of the average leucocyte number of the test group to that of the control group; for proportion of the average leucocyte number of the test group to that of the control group: oral
Method: (a) Alteration of the leucocyte number
The active substance was dissolved in each case in 10 ml of a 1% methyl-hydroxyethyl cellulose solution per kg of body weight and orally applied by means of a neck tube to ten fasting female Sprague-Dawley rats in each case. On the fourth day, blood was taken retroorbitally and the leucocyte number was determined by means of a coult counter.

Walker-Carcinoma 256 = assay: Cancerostatic effect: Walker-Carcinoma 256 transplanted in rats; format: in vivo, female Sprague-Dawley rats; conditions: for Tumor weight: three days prior to tumor application, day 7, average of 20 animals; for Difference (tumor weight): vs control
Method: (§1) Ready-to-be-transplanted tumors of various kinds were taken from freshly killed rats, comminuted coarsely and pulverized with addition of 8 ml of physiological sodium chloride solution. Female Sprague-Dawley rats weighing 80 to 100 g were used as test animals. The respective tumor cell suspension was applied subfacially to the animals in an amount of 0.5 ml per animal under sterile conditions in the neck area. On the seventh day after the transplantation the animals were killed, the tumors taken out and weighed. The substances according to the instant invention were in each case applied orally three days prior to the tumor application by means of a throat tube (in 10 ml 1% hydrous methylhydroxylethyl cellulose solution per kg of body weight).

[3] = Acute toxicity (LD50) in rats; conditions: rat, in vivo
Method: (§2) These values are much higher than the pharmacologically effective dosages (0.5-50 mg/kg body weight).

Candida albicans = assay: In vitro fungistatic effect; format: cell-based
Candida albicans-219 = assay: Resistance increase in case of Candida albicans infection in mice; format: in vivo, Candida albicans; female NMRI mice; conditions: 50 mg per kg oral, one hour after i.v. infection, after six days
Method: Female, adult NMRI mice weighing 25-30 g were infected with Candida albicans-219. A suspension of approximately 300,000 germs in 0.2 ml physiological sodium chloride per animal was given intravenously. One hour later, 50 mg of the compound of Example 1, per kg body weight, were applied orally by way of neck tube, dissolved in 10 ml 0.1% methyl-hydroxyethyl cellulose. The control group received the same solution without active material. After six days, 18 of the 30 animals of the control group were dead, but only 3 of the 30 animals of the test group, which corresponds to a survival rate of 90% and makes clearly evident the resistance-increasing effect.

[4] = Acute toxicity (LD50) in mice; conditions: mouse, in vivo, ip, single intraperitoneal administration
Method: as §2

DC-Carcino-Sarcoma = assay: Cancerostatic effect: DC-Carcino-Sarcoma transplanted in rats; format: in vivo, female Sprague-Dawley rats; conditions: for Tumor weight: three days prior to tumor application, day 7, average of 20 animals; for Difference (tumor weight): vs control
Method: as §1

Compound	response vs control in vivo at 50 mg/kg (leucocyte number; 50 mg per kg body weight) [%]	response vs control in vivo at 200 mg/kg (leucocyte number; 200 mg per kg body weight) [%]	also measured
N#CC1CN1C(N)=O (stereo not drawn) [1-carboxamido-2-cyanoaziridine]	–	–	keeping time in buffered aqueous solution ([1]; buffered aqueous solution): can only be kept for a short time; acid stability [1]: acid lability; antibody-forming spleen cells [2]: increase of the antibody-forming spleen cells; cytostatic action [2]: cytostatic action; number of erythrocytes [2]: substantially unchanged; number of leukocytes and lymphocytes [2]: marked increase
CC(C)C(N1CC1C#N)N1CC1C(N)=O (stereo not drawn) [27 a]	119	166	–
CCC(N1CC1C#N)N1CC1C(N)=O (stereo not drawn) [27 d]	140	178	–
CCCC(N1CC1C#N)N1CC1C(N)=O (stereo not drawn) [27 e]	130	136	–
N#CC1CN1C1(N2CC2C(N)=O)CCOCC1 (stereo not drawn) [28 a]	109	130	–
N#CC1CN1C(C1CCCCC1)N1CC1C(N)=O (stereo not drawn) [28 b]	120	155	–
N#CC1CN1C(c1ccc(Cl)cc1)N1CC1C(N)=O (stereo not drawn) [29 b]	100	140	–
N#CC1CN1C(c1ccco1)N1CC1C(N)=O (stereo not drawn) [29 d]	100	130	–
N#CC1CN1C(c1cccs1)N1CC1C(N)=O (stereo not drawn) [29 e]	115	150	–
N#CC1CN1C(c1cccc([N+](=O)[O-])c1)N1CC1C(N)=O (stereo not drawn) [29 f]	109	126	–
Cc1ccccc1C(N1CC1C#N)N1CC1C(N)=O (stereo not drawn) [30 a]	140	134	–
COc1cccc(C(N2CC2C#N)N2CC2C(N)=O)c1 (stereo not drawn) [30 b]	122	131	–
N#CC1CN1C(c1ccc(O)cc1)N1CC1C(N)=O (stereo not drawn) [30 c]	170	221	–
COC(=O)c1ccc(C(N2CC2C#N)N2CC2C(N)=O)cc1 (stereo not drawn) [30 d]	108	150	–
CC(C)(N1CC1C#N)N1CC1C(N)=O (stereo not drawn) [Example 1, 2-[2-Cyanoaziridinyl-(1)]-2-[2-carbamoylaziridinyl-(1)]-propane]	–	–	Tumor weight (Walker-Carcinoma 256; 5.0 mg/kg oral): 11.8 g; Difference (tumor weight) (Walker-Carcinoma 256; 5.0 mg/kg oral): -27.1%; Tumor weight (Walker-Carcinoma 256; 50.0 mg/kg oral): 12.1 g; Difference (tumor weight) (Walker-Carcinoma 256; 50.0 mg/kg oral): -25.4%; Tumor weight (Walker-Carcinoma 256; 100.0 mg/kg oral): 15.6 g; LD50 ([3]; ip, single intraperitoneal administration, read-out: acute toxicity (LD50)): 2550 mg/kg; LD50 ([3]; oral administration, read-out: LD50): 3100 mg/kg; fungistatic effect (Candida albicans): no fungistatic effect; survival rate (Candida albicans-219): 90%; dead animals (Candida albicans-219; control 18 of 30): 3 of the 30 animals; LD50 [4]: 2270 mg/kg; proportion of the average leucocyte number of the test group to that of the control group (leucocyte number; 50 mg per kg body weight): 1,70; proportion of the average leucocyte number of the test group to that of the control group (leucocyte number; 200 mg per kg body weight): 1,55; Tumor weight (DC-Carcino-Sarcoma; 150 mg/kg oral): 5.9 g; Difference (tumor weight) (DC-Carcino-Sarcoma; 150 mg/kg oral): -67.0%; Tumor weight (DC-Carcino-Sarcoma; 300 mg/kg oral): 9.8 g; Difference (tumor weight) (DC-Carcino-Sarcoma; 300 mg/kg oral): -45.0%
CC(C)(N1CC1C#N)N1CC1C(N)=O (stereo not drawn) [Example 3, 2-[2-Cyanoaziridinyl-(1)]-2-[2-carbamoylaziridinyl-(1)]-propane]	–	–	proportion of the average leucocyte number of the test group to that of the control group (leucocyte number; 50 mg per kg body weight): 1,42; proportion of the average leucocyte number of the test group to that of the control group (leucocyte number; 200 mg per kg body weight): 1,82
CCOC(=O)C(C)(N1CC1C#N)N1CC1C(N)=O (stereo not drawn) [Example 6, Ethyl α-[2-cyanoaziridinyl-(1)]-α-[2-carbamoylaziridinyl-(1)]-propionate]	115	165	–
CC(C1CC1)(N1CC1C#N)N1CC1C(N)=O (stereo not drawn) [Example 9, 1-[2-cyanoaziridinyl-(1)]-1-[2-carbamoylaziridinyl-(1)]-1-cyclopropylethane]	132	182	–
N#CC1CN1C1(N2CC2C(N)=O)CCCCC1 (stereo not drawn) [Example 10, 1-[2-Cyanoaziridinyl-(1)]-1-[2-carbamoylaziridinyl-(1)]cyclohexane]	–	–	Tumor weight (Walker-Carcinoma 256; 10.0 mg/kg oral): 7.9 g; Tumor weight (Walker-Carcinoma 256; 50.0 mg/kg oral): 5.0 g; Difference (tumor weight) (Walker-Carcinoma 256; 50.0 mg/kg oral): -41.7%; Tumor weight (Walker-Carcinoma 256; 100.0 mg/kg oral): 4.5 g; Difference (tumor weight) (Walker-Carcinoma 256; 100.0 mg/kg oral): -46.9%; proportion of the average leucocyte number of the test group to that of the control group (leucocyte number; 50 mg per kg body weight): 0,92; proportion of the average leucocyte number of the test group to that of the control group (leucocyte number; 200 mg per kg body weight): 2,06; Tumor weight (DC-Carcino-Sarcoma; 50 mg/kg oral): 11.0 g; Difference (tumor weight) (DC-Carcino-Sarcoma; 50 mg/kg oral): -38.5%; Tumor weight (DC-Carcino-Sarcoma; 100 mg/kg oral): 10.9 g; Difference (tumor weight) (DC-Carcino-Sarcoma; 100 mg/kg oral): -40.0%
N#CC1CN1C1(N2CC2C(N)=O)CCCCC1 (stereo not drawn) [Example 16, 1-[2-Cyanoaziridinyl-(1)]-1-[2-carbamoylaziridinyl-(1)]-cyclohexane]	–	–	proportion of the average leucocyte number of the test group to that of the control group (leucocyte number; 50 mg per kg body weight): 1,30; proportion of the average leucocyte number of the test group to that of the control group (leucocyte number; 200 mg per kg body weight): 1,50
CC1CCC(N2CC2C#N)(N2CC2C(N)=O)CC1 (stereo not drawn) [Example 19, 1-[2-Cyanoaziridinyl-(1)]-1-[2-carbamoylaziridinyl-(1)]-4-methylcyclohexane]	100	136	–
COC(=O)C1CCC(N2CC2C#N)(N2CC2C(N)=O)CC1 (stereo not drawn) [Example 20, 1-[2-Cyanoaziridinyl-(1)]-1-[2-carbamoylaziridinyl-(1)]-4-methoxycarbonylcyclohexane]	123	151	–
N#CC1CN1C1CCCC(N2CC2C#N)(N2CC2C(N)=O)C1 (stereo not drawn) [Example 21, 1,3-Bis-[2-cyanoaziridinyl-(1)]-1-[2-carbamoylaziridinyl-(1)]-cyclohexane]	111	130	–
N#CC1CN1C(c1ccccc1)(c1ccccc1)N1CC1C(N)=O (stereo not drawn) [Example 26, α-[2-Cyanoaziridinyl-(1)]-α-[2-carbamoylaziridinyl-(1)]-diphenylmethane]	125	120	–
CC(N1CC1C#N)N1CC1C(N)=O (stereo not drawn) [Example 27, 1-[2-Cyanoaziridinyl-(1)]-1-[2-carbamoylaziridinyl-(1)]-ethane]	117	153	–
N#CC1CN1C1(N2CC2C(N)=O)CCCSC1 (stereo not drawn) [Example 28, 3-[2-Cyanoaziridinyl-(1)]-3-[2-carbamoylaziridinyl-(1)]-tetrahydrothiapyran]	126	180	–
N#CC1CN1C(C=Cc1ccccc1)N1CC1C(N)=O (stereo not drawn) [Example 31, 3-[2-cyanoaziridinyl-(1)]-3-[2-carbamoylaziridinyl-(1)]-1-phenylprop-1-ene]	113	141	–
N#CC1CN1C1(N2CC2C#N)CCCCC1 (stereo not drawn) [Example 32, 1,1-bis-[2-cyanoaziridinyl-(1)]-cyclohexane]	150	150	–
